Values after ≈ are worked out from the molar mass of the structure shown. “Also recorded” adds a separate entry of the source. Read-outs that look alike come from different tables or passages of the source.
Experiments:
[1] = test system: Escherichia (E.) coli (ATCC 11775); assay: MIC measurement (broth microdilution); type: cell-based; details: source ATCC, 18–24 h at 37 °C
[2] = test system: Salmonella (S.) enterica (clinical isolate); assay: MIC measurement (broth microdilution); type: cell-based; details: source 204/22, 18–24 h at 37 °C
From the text: Bacterial strains used in this study were as follows: S. suis serotype 2 (ATCC 958242) Staphylococcus (S.) aureus (ATCC 10832), Escherichia (E.) coli (ATCC 11775), Pseudomonas (P.) aeruginosa (ATCC 27853), Pasteurella (P.) multocida (clinical isolate), Burkholderia (B.) cepacia (clinical isolate), Salmonella (S.) enterica (clinical isolate), and Enterococcus (E.) faecalis (clinical isolate). Of the clinical isolates used in this study, P. multocida is of porcine origin, B. cepacia is of human origin, and S. enterica and E. faecalis are of poultry origin. The bacterial strains were stored in the Microbiology Laboratory of the University of Veterinary Medicine, Budapest, at a temperature of −80 °C. Bacterial strains were inoculated the day before the test in 5 mL of Cation-Adjusted Mueller–Hinton Broth (CAMHB) and incubated for 18–24 h at 37 °C. The initial inoculum concentration used for the MIC assay was 5 × 10^5/mL. All wells except the first column of the working plates were filled with 90 µL CAMHB. A stock solution of inhibitors at 800 µM was then prepared, 180 µL of which was measured into the first column of plates and used to prepare a 2-based dilution on 96-well plates. After the 10th column, the tips were discarded with the 90 µL excess solution so that each column contained 90 µL of solution. Each bacterial strain was tested in a single row on the working plates. A bacterial suspension diluted to 25× was prepared on an auxiliary plate for bacterial inoculation by loading 240 µL of TSB per column of plates and adding 10–10 µL of bacterial strain suspension per well. In the next step, the isolated bacterial strains were inoculated onto the plates. Starting from column 11 (positive control) of the plates containing dilution row 2, 10 µL of bacterial suspension was added to each well, working backward. Column 11 served as a positive control (containing only bacterial suspension and broth), while column 12 served as a negative control (containing only broth). The microplates were then incubated at 37 °C for 18–24 h, and the MIC values were assessed in comparison to positive controls.

[3] = test system: Staphylococcus (S.) aureus (ATCC 10832); assay: MIC measurement (broth microdilution); type: cell-based; details: source ATCC, 18–24 h at 37 °C
[4] = test system: S. suis serotype 2; assay: MIC measurement (broth microdilution); type: cell-based, Streptococcus suis; details: source 672/22, 18–24 h at 37 °C
[5] = test system: Burkholderia (B.) cepacia (clinical isolate); assay: MIC measurement (broth microdilution); type: cell-based
[6] = test system: Enterococcus (E.) faecalis (clinical isolate); assay: MIC measurement (broth microdilution); type: cell-based
[7] = test system: IPEC-J2 cells; assay: Cell viability, Neutral red assay; type: cell-based, porcine; details: IPEC-J2, S. suis 10^4 CFU/mL in combination with inhibitor 50 µM, 24 h
From the text: The IPEC-J2 cell line is unique as it is non-transformed and non-tumorigenic. IPEC-J2 cells are derived from intestinal enterocytes extracted from the jejunum of neonatal unsuckled piglets. IPEC-J2 cells were gifted by Dr. Jody Gookin (Department of Clinical Sciences, College of Veterinary Medicine, North Carolina State University, Raleigh, NC, USA). […] The cells had undergone passage around 50 times. […] This experiment included plain DMEM/F12 medium as a control. At the end of the final treatments (24 h), the ratio of viable cells was measured by absorbance at 540 nm wavelength with a SpectraMax iD3 microplate reader.

[8] = test system: primary porcine hepatocytes; assay: Cell viability, Neutral red assay; type: cell-based; details: S. suis 10^4 CFU/mL in combination with inhibitor 50 µM, 24 h
Procedure: Porcine cryopreserved primary hepatocytes were obtained from Primacyt Cell Culture Company (Schwerin, Germany). Lonza Group Ltd. (Biocenter Ltd., Szeged, Hungary) supplied the thawing, plating, and maintenance media. The cytotoxic effects of inhibitors MI-432, MI-471, and MI-476 were tested on the viability of primary hepatocytes using the NR method. The hepatocytes were cultivated on a 96-well plate for 24 h, followed by incubation with the inhibitors at 0, 50, and 100 µM for an additional 24 h. Only cell maintenance medium was used to incubate the control cells. The plate underwent incubation together with NR dye for 2 h. Hepatocyte viability was recorded at 540 nm with a SpectraMax iD3 microplate reader.

[9] = test system: IPEC-J2 cells; assay: EC H2O2 production, Amplex red method; type: cell-based, porcine; details: 24 h
Procedure: For oxidative status measurements, inhibitors MI-432, MI-471, or MI-476 were used at 50 µM in the absence and presence of S. suis for 24 h in IPEC-J2 cells and in primary porcine hepatocytes on 24-well plates. An Amplex red hydrogen peroxide assay kit was used to monitor EC hydrogen peroxide (H₂O₂) production in IPEC-J2 cells and in hepatocytes. Following the manufacturer’s instructions, cell-free supernatants were collected and mixed with the Amplex red working solution (in a ratio of 1:1). A Victor X2 2030 fluorometer was used to detect fluorescence intensity at wavelengths 530 nm and 590 nm for excitation and emission, respectively.

[10] = test system: IPEC-J2 cells; assay: IL-6 production, porcine IL-6 ELISA; type: cell-based; details: IPEC-J2, S. suis 10^4 CFU/mL in combination with inhibitor, 24 h
Procedure: (§1) After 24 h incubation time, the cell-free supernatants from […], MI-471, and MI-476 exposure were sampled from IPEC-J2 cells and from porcine hepatocytes. The changes in cytokine levels were detected with porcine IL-6 ELISA kits. The manufacturer’s instructions were followed to treat the supernatants and measured by a SpectraMax iD3 microplate reader at 450 nm.

[11] = test system: porcine hepatocytes; assay: IL-6 production, porcine IL-6 ELISA; type: cell-based; details: S. suis 10^4 CFU/mL in combination with inhibitor, 24 h
Procedure: as §1

[12] = test system: SARS-CoV-2; parameters: method as in PMID 32703818; details: human airway cells, synergistically in combination with furin inhibitor MI-1851; cited from earlier work
[13] = test system: monkey CYP1A2 enzymes; details: cited from earlier work
[14] = test system: Pseudomonas (P.) aeruginosa (ATCC 27853); assay: MIC measurement (broth microdilution); type: cell-based; details: source ATCC, 18–24 h at 37 °C
[15] = test system: Pasteurella (P.) multocida (clinical isolate); assay: MIC measurement (broth microdilution); type: cell-based; details: source 380/22, 18–24 h at 37 °C
[16] = test system: S. suis strains isolated from pigs; details: cited from earlier work; for S. suis strains found to be sensitive: strains isolated from pigs, European VetPath survey 2005–2012; for S. suis strains sensitive: same survey (VetPath)
[17] = target: CYP2D6 (Homo sapiens, UniProt P10635); assay: CYP enzyme fluorometric activity measurement, human hepatic microsomes; details: reference inhibitor at 3 µM; p < 0.05
Chain of CYP2D6 (P10635 whole entry): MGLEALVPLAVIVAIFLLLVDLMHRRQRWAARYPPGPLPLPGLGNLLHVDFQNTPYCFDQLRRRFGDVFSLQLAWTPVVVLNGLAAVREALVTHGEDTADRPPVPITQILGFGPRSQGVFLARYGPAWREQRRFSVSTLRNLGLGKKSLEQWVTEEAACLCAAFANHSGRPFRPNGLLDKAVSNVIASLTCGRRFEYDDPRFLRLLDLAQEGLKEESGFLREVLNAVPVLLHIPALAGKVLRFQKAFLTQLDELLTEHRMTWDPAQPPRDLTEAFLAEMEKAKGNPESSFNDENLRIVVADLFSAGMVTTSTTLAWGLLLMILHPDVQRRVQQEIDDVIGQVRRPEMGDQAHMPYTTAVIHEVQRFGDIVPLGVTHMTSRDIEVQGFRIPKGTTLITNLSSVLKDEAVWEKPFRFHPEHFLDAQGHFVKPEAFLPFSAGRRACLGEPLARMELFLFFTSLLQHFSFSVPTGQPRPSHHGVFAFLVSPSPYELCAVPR
Procedure: (§2) The Biovision CYP assays (BioVision, Inc., Kampenhout, Belgium) employ non-fluorescent CYP2D6, 2C9, 2C19, 1A2, or 3A4 substrates able to undergo transformation into highly fluorescent detectable metabolites. […] Human hepatic microsomal supernatants were prepared (Gibco, Biocentre, Szeged, Hungary protein concentration: 20 mg/mL) separately by mixing 30 µL with 2425 µL assay buffer and with 50 µL nicotinamide adenine dinucleotide phosphate (NADPH) generating system (100×). […] Control measurements were performed in the absence of the inhibitors.
(§3) In background controls, only assay buffer excluding microsomes and test compounds was used in a volume of 70 µL. Subsequently, after incubation at 37 °C for 15 min, 30 µL of the suitable CYP substrate/NADP+ mixture was incorporated into each well, resulting in a final reaction volume of 100 µL/well. The obtained microsomal protein content was assessed using the bicinchoninic acid protein assay kit (Pierce BCA kit, Thermo Fisher Scientific, Waltham, MA, USA). In each assay, the microsomal protein concentration was calibrated to 100 µg/well. The fluorescence intensities were measured with a fluorometer (Victor X2 2030, Perkin Elmer, Waltham, MA, USA) using λex/em = 406/468 nm for CYP1A2 and for CYP2C19, λex/em = 415/502 nm for CYP2C9, λex/em = 390/468 nm for CYP2D6, and λex/em = 535/587 nm for CYP3A4 assays.

[18] = target: T1, CYP1A2 (Homo sapiens, UniProt P05177); assay: as above; details: reference inhibitor at 6 µM; p < 0.001
T1 sequence (P05177 1-516): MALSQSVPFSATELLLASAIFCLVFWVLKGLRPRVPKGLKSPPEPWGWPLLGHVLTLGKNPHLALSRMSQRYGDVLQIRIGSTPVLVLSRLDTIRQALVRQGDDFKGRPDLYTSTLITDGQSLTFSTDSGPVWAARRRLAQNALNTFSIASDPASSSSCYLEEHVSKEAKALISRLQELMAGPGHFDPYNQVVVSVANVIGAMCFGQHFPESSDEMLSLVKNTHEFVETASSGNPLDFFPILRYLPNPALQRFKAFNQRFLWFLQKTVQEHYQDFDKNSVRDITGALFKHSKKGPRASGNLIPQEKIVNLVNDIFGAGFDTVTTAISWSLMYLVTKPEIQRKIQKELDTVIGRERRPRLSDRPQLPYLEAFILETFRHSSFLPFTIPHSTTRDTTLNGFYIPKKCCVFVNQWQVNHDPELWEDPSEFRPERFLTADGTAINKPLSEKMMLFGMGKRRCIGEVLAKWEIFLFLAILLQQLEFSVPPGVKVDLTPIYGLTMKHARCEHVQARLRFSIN
Procedure: as §2, §3

[19] = B. cepacia, source 20-10299, 18–24 h at 37 °C, read-out: MIC
[20] = E. fecalis, source 442, 18–24 h at 37 °C, read-out: MIC

N=C(N)c1cccc(C[C@H](NS(=O)(=O)c2cccc(-c3ccc(Cl)cc3Cl)c2)C(=O)N2CCC(CCN)CC2)c1 [MI-432]
MIC [1]: > 800 µM
MIC [2]: > 800 µM
MIC ([3]; read-out: MIC): 50 µM (≈ 30.1 µg/mL)
MIC ([4]; Streptococcus suis): 1.5 µM (≈ 0.904 µg/mL)
MIC [4]: < 1.5625 µM
MIC ([4]; listed as 432): <1.5625 µM
MIC [5]: 800 µM (≈ 482 µg/mL)
MIC ([6]; Enterococcus): > 800 µM
cell viability [7]: slightly less worsening of the cells; also recorded: reduction in the number of viable cells
cell viability [8]: significantly decreased cell viability; also recorded: reduction in the number of viable cells
EC H2O2 production ([9]; IPEC-J2, S. suis 10^4 CFU/mL in combination with inhibitor 50 µM): unchanged H₂O₂ production; also recorded: antioxidant properties
EC H2O2 production ([9]; IPEC-J2, inhibitor alone 50 µM): unchanged H₂O₂ production
IL-6 levels [10]: significant anti-inflammatory effects
IL-6 levels [11]: significant anti-inflammatory effects
efficacy against SARS-CoV-2 [12]: effective
inhibition of monkey CYP1A2 enzymes [13]: significant inhibition

COc1ccc(-c2cccc(S(=O)(=O)N[C@@H](Cc3cccc(C(=N)N)c3)C(=O)N3CCC(N)CC3)c2)c(OC)c1 [MI-472]
MIC [14]: >800 µM
MIC [1]: >800 µM
MIC [2]: >800 µM
MIC [15]: 400 µM (≈ 226 µg/mL)
MIC ([3]; read-out: MIC): 800 µM (≈ 453 µg/mL)
MIC [4]: 50 µM (≈ 28.3 µg/mL)
MIC [5, 19]: 800 µM (≈ 453 µg/mL)
MIC [6, 20]: >800 µM

COc1ccc(-c2cccc(S(=O)(=O)N[C@@H](Cc3cccc(C(=N)N)c3)C(=O)N3CCC(NC(=O)NC(C)(C)C)CC3)c2)c(OC)c1 [MI-485]
MIC [14]: >800 µM
MIC [1]: >800 µM
MIC [2]: >800 µM
MIC [15]: >800 µM
MIC [3]: 100 to 200 µM
MIC ([3]; read-out: MIC): 200 µM (≈ 133 µg/mL)
MIC [4]: 50 µM (≈ 33.2 µg/mL)
MIC [5, 19]: 800 µM (≈ 532 µg/mL)
MIC [6, 20]: >800 µM

COc1ccc(-c2cccc(S(=O)(=O)N[C@@H](Cc3cccc(C(=N)N)c3)C(=O)N3CCN(C(=O)NC4CCCCC4)CC3)c2)c(OC)c1 [MI-1900, reference compound]
efficacy against SARS-CoV-2 [12]: effective

CO/N=C(\C(=O)N[C@@H]1C(=O)N2C(C(=O)O)=C(CSC(=O)c3ccco3)CS[C@H]12)c1csc(N)n1 [ceftiofur]
S. suis strains found to be sensitive [16]: 97%

CCN1CCN(c2cc3c(cc2F)c(=O)c(C(=O)O)cn3C2CC2)CC1 [enrofloxacin]
S. suis strains sensitive [16]: more than 95%

CS(=O)(=O)c1ccc([C@@H](O)[C@@H](CF)NC(=O)C(Cl)Cl)cc1 [florfenicol]
S. suis strains sensitive [16]: more than 95%

C=C[C@H]1C[N@@]2CC[C@H]1C[C@@H]2[C@@H](O)c1ccnc2ccc(OC)cc12 [quinidine]
CYP2D6 activity [17]: significantly suppressed

CN(C)[C@@H]1C(O)=C(C(N)=O)C(=O)[C@@]2(O)C(O)=C3C(=O)c4c(O)cccc4[C@@](C)(O)[C@H]3C[C@@H]12 [tetracycline]
S. suis strains sensitive [16]: 4%

O=c1cc(-c2ccccc2)oc2c1ccc1ccccc12 [α-naphthoflavone, reference compound]
CYP1A2 activity [18]: significantly suppressed

amoxicillin–clavulanic acid
S. suis strains found to be sensitive [16]: 100%
